Laboratory results as given in patent US12611470B2, “Chromatin-opening element for stable long term gene expression” (CZ Biohub SF, LLC, priority 2019, dated 2026).

Legend:
Transduced P19 cells = assay: Epigenetic effector experiments: rescue of GFP expression in silenced transduced cells; type: cell-based, mouse; conditions: for reactivation of GFP expression: all examined populations, range of concentrations; for silenced cells rescued: RSV promoter-only construct, 24 h treatment
Procedure: (§1) GFP expression is rescued by treatment with DNA methylation inhibitor 5-aza-cytidine (5-aza) in day 18 UCOE-RSV cells from the lentiviral silencing experiment. Cells were replica plated at day 16, specified concentrations of 5-aza were introduced 24 hours later (with exception of control), and cells were passaged and assayed via flow cytometry 24 hours after chemical introduction for % GFP+ cells. Data is reported as mean±SD from three biological replicates.
as §1, with “HDAC” for “DNA methylation”, “trichostatin A (TSA)” for “5-aza-cytidine (5-aza)”, “24” for “18”, “22,” for “16,”, “TSA” for “5-aza”, “mean f SD” for “mean±SD”
Cells were replica plated at day 16, specified concentrations of 5-aza were introduced 24 hours later (with exception of control), and cells were passaged and assayed via flow cytometry 24 hours after chemical introduction for % GFP+ cells. Data is reported as mean±SD from three biological replicates. In the graph, data is shown from left to right for each construct: no treatment, 2 μM 5-aza, 10 μM 5-aza. […] Cells were replica plated at day 22, specified concentrations of TSA were introduced 24 hours later (with exception of control), and cells were passaged and assayed via flow cytometry 24 hours after chemical introduction for % GFP+ cells. Data is reported as mean f SD from three biological replicates. In the graph, data is shown from left to right for each construct: no treatment, 0.05 μM TSA, 0.1 μM TSA. […] Cells were replica plated at day 19, treated with 0.1 μM TSA or 10 μM 5-aza (with exception of control) 24 hours later, and cells were passaged and assayed via flow cytometry 24 hours after chemical introduction for % GFP+ cells. Data is reported as mean f SD from three biological replicates. In the graphs for FIG. 6C and FIG. 6D, the data is shown from left to right for each construct: no treatment, 0.1 μM TSA, 10 μM 5-aza.
Replica-plated cell populations were treated with varying concentrations of 5-aza-2′-deoxycytidine (Sigma-Aldrich, A3656) or Trichostatin A (Sigma-Aldrich, T1952) 24 hours after passaging. TSA was purchased as a readymade 5 mM solution in DMSO, which was then diluted to a 0.05 μM or 0.1 μM concentration in P19 growth media. 5 mg of 5-aza-2′-deoxycytidine was dissolved in 1 mL of 1:1 acetic acid: water to make a 21.9 mM stock solution, which was then diluted in P19 growth media to 2 μM or 10 μM. Cells were assayed through flow cytometry after 24 hours. […]

P19 cells = assay: Standalone (intrinsic) promoter activity screen, UCOE-GFP construct lacking the Ef1a promoter; type: cell-based, mouse; conditions: promoterless GFP construct, after two weeks of antibiotic selection
Description: A schematic representation of the expression construct in which the candidate region (UCOE) is inserted upstream of the GFP gene in the absence of any other promoter sequences as used is shown as an inlay. As positive controls, the Ef1α promoter, the 2.2 kB A2UCOE sequence, and the 1.2 kB reverse orientation sequence 3′UCOE, were cloned into the same reporter construct as the candidate sequences. The percent GFP positive in the population was monitored as a metric for gene expression by flow cytometry analysis with each passage (% GFP). Stably transfected cells were assayed for % GFP+ and median fluorescent intensity (normalized to Ef1a promoter control). Data is reported as mean±SD from biological duplicates.
P19 cells were seeded at 25,000 cells/well in 12 well plates. 24 h after seeding, cells were transfected using Lipofectamine™ 2000 transfection reagent (Thermo Fisher) according to the manufacturer's instructions using 500 ng DNA/well and 2.5 μL of Lipofectamine per well. 24 hours after transfection, selection was initiated with 1 μg/mL puromycin (Sigma-Aldrich) in regular growth media and, from then on, cells were passaged at 1:15 or 1:20 dilutions whenever cells were 80-90% confluent (every 2-3 days) with frequent refreshing of puromycin-containing media to clear dead cells. After approximately 14-16 days, remaining cells were assumed to be stably transfected and were changed to regular growth media to initiate silencing experiments. During silencing experiments, the P19 cells were passaged every 2-3 days and re-seeded at 15,000 cells/well.
Fluorescence data throughout silencing experiments was obtained using a MACSQuant® VYB flow cytometer (Miltenyi Biotec). EGFP was measured through the 488-nm laser and 525/50 nm band pass filter. Flow cytometry data was analyzed using the FlowJo™ single cell flow cytometry analysis software (Tree Star). After being gated for singlets and viability, GFP+ gates in FlowJo were drawn such that a non-transfected or non-transduced P19 cell population was at 1% GFP+. Median values reported are of cells within the GFP+ gate, both % GFP positive and median are reported with the standard deviation of biological replicates.
As A2UOCE dually functions as a protective regulatory element and a universal promoter, the candidate UCOEs were further screened for standalone promoter activity. A similar experiment as the aforementioned screen was performed using a similar expression construct that lacked the Ef1a promoter. This construct was used to assess whether the candidate sequences could drive reporter expression and act as stand-alone functional promoters. Candidates were compared to the positive control of the EF1a promoter, which had ˜70% GFP+ cells after two weeks of antibiotic selection, showing a distinct positive population in the fluorescence histogram. The GFP+ gate (i.e., flow cytometry fluorescence threshold for GFP+ cells) was set to encompass 1% of untransfected cells and then applied to all samples. […] Such a result appears as a bimodal distribution on a histogram, with a peak below the gate threshold (i.e., GFP negative cell population) and a peak above it (i.e., the distinct GFP positive population mentioned above). […] In this study, a % GFP+ of at least 50% is considered to reflect the existence of a second population in the histograms, and thus a binary indicator of promoter function. […] The median GFP intensity of the GFP+ population was used a measure of the strength of the promoter, and normalized to the Ef1a positive control as shown in FIG. 2C.
This aligns with previous observations that the RNPA2B1 promoter is much stronger than that of CBX3 (Zhang, F., et al. (2010) Mol Ther, 18, 1640-1649 (7)). However, the RNPA2B1 promoter in A2UCOE is only 30% as strong as the EF1α promoter. […]

Molecule | reactivation of GFP expression (Transduced P19 cells) | silenced cells rescued (Transduced P19 cells; highest dose of TSA, day 24 cells) | silenced cells rescued (Transduced P19 cells; highest dose of 5-aza, day 18 cells) [%] | % GFP+ cells (P19 cells) [%] | % GFP+ cells, representative flow cytometry example (P19 cells; one representative example) [%]
CC(/C=C/C(=O)NO)=C\[C@@H](C)C(=O)c1ccc(N(C)C)cc1 [TSA, trichostatin A] | dose-dependent recovery of GFP expression | about 25% |  |  | 
Nc1ncn([C@@H]2O[C@H](CO)[C@@H](O)[C@H]2O)c(=O)n1 [Candidate 5-aza, 5-azacytidine] | dose-dependent increase in % GFP positive cells |  | 63 |  | 
EF1a promoter: Elongation Factor 1 promoter, positive control for promoter activity (nucleic acid, Rous sarcoma virus) DNA: AATGTAGTCTTATGCAATACTCTTGTAGTCTTGCAACATGGTAACGATGAGTTAGCAACATGCCTTACAAGGAGAGAAAAAGCACCGTGCATGCCGATTGGTGGAAGTAAGGTGGTACGATCGTGCCTTATTAGGAAGGCAACAGACGGGTCTGACATGGATTGGACGAACCACTGAATTCCGCATTGCAGAGATATTGTATTTAAGTGCCTAGCTCGATACAATAAACGCCATTTGACCATTCACCACATTGGTGTGCACC |  |  |  | ~70 | 74.2
